Tests used:
[1] = Ability to inhibit WI-L2 […] leukemia tumor cell growth in culture after 48 hr of its exposure.; assay type: functional, cell-based; conditions: Homo sapiens, WIL2, 48 h
L1210 [2] = assay: Ability to inhibit MTX-resistant L1210/R81 tumor cell growth was determined.; conditions: Mus musculus
Dihydrofolate reductase = biological target: T1, Dihydrofolate reductase (Homo sapiens, UniProt P00374)
T1 sequence (P00374 whole entry): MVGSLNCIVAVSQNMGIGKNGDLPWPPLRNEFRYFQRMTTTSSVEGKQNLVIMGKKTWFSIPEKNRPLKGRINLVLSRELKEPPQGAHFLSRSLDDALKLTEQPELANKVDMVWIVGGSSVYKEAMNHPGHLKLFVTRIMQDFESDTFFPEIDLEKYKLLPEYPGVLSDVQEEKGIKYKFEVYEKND
Description: Ability to inhibit purified Dihydrofolate reductase from human leukemic lymphoblasts was determined spectrophotometrically at 340 nM.

L1210 [3] = assay: Ability to inhibit L1210 murine leukemia tumor cell growth in culture after 48 hr of its exposure.; assay type: functional, cell-based; conditions: Mus musculus, L1210, 48 h

| Compound | IC50 [1] [nM] | IC50 (L1210 [2]) [nM] | IC50 (Dihydrofolate reductase) [nM] | IC50 (L1210 [3]) [nM] |
| --- | --- | --- | --- | --- |
| CN(Cc1cnc2nc(N)nc(N)c2n1)c1ccc(C(=O)N[C@@H](CCC(=O)O)C(=O)O)cc1 [METHOTREXATE] | 13 | 200000 |  |  |
| Nc1nc(N)c2nc(CNc3ccc(C(=O)N[C@@H](CCC(=O)O)C(=O)O)cc3)cnc2n1 [AMINOPTERIN] | 7.1 |  |  |  |
| C=C(CC(NC(=O)c1ccc(N(C)Cc2cnc3nc(N)nc(N)c3n2)cc1)C(=O)O)C(=O)O (stereo unspecified) | 48 |  | 44 | 870 |
| C=C(CC(NC(=O)c1ccc(NCc2cnc3nc(N)nc(N)c3n2)cc1)C(=O)O)C(=O)O (stereo unspecified) | 20 |  | 88 | 29 |
| CN(Cc1cnc2nc(N)nc(N)c2n1)c1ccc(C(=O)NC(CC(C#N)C(=O)O)C(=O)O)cc1 (stereo unspecified) |  |  | 57 | 18 |

From ChEMBL document CHEMBL1125723 (J Med Chem, 1991)
